Test systems include LOX IMVI melanoma; MOLT-4 leukemia; SF-539 CNS; NCI-H522 lung; EKVX NSCLC; OVCAR-8 ovarian; T-47D breast; HOP-62 NSCLC; A498 renal; TK-10 renal.
Experiment in all cases: inhibition of tumour cell growth, NCI panel, 48 h

Values joined by “and” are separate entries in the source; they are usually repeats but may differ in a detail not shown here. Identical values can stand only once.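 Assay format: 96-well plates, 48-hour exposure. GI50 marks 50% less growth. TGI marks complete inhibition of growth.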

Regarding `CC[C@@H]1C(=O)N(C)c2cnc(Nc3ccc(C(=O)NC4CCC(N5CCN(CC6CC6)CC5)CC4)cc3OC)nc2N1C(C)C` (stereo partly specified), the GI50 in the assay with LOX IMVI melanoma is 25.4 nM and 33.9 nM; in the assay with MOLT-4 leukemia, 11.6 nM and 19 nM; in the assay with SF-539 CNS it was 40.9 nM and 37.2 nM; in the assay on NCI-H522 lung, 4.62 nM and < 11.5 nM; in the assay with EKVX NSCLC it was 74.9 nM and 234 nM; in the assay with OVCAR-8 ovarian, 24.2 nM and 33 nM. In addition, the GI50 in the assay on T-47D breast was 155 nM and 113 nM; in the assay on HOP-62 NSCLC, 20.8 nM and 34 nM; in the assay on A498 renal, 28.4 nM and 33.8 nM; with TK-10 renal it was 128 nM and 77.6 nM. Besides, the TGI was 1.6 µM and 1.67 µM with LOX IMVI melanoma; > 5.38 µM and 1.28 µM in the assay on MOLT-4 leukemia; 1360 nM and 1480 nM in the assay with SF-539 CNS; 82.2 nM and 56.4 nM with NCI-H522 lung; > 10 µM and 21.6 µM with EKVX NSCLC; > 10 µM and 1.65 µM in the assay with OVCAR-8 ovarian. For the same compound, the TGI in the assay on T-47D breast was > 10 µM and 21.9 µM; in the assay with HOP-62 NSCLC, > 8.64 µM and 3.93 µM; in the assay with A498 renal, 0.236 µM and 0.252 µM; in the assay with TK-10 renal, > 10 µM and 8.62 µM.
On to `CN(C)CCN1C(=O)c2cccc3cc(N)cc(c23)C1=O`, for which the GI50 in the assay with LOX IMVI melanoma is 2180 nM; in the assay on MOLT-4 leukemia it was 1880 nM; with NCI-H522 lung, 3210 nM; in the assay on EKVX NSCLC, 4220 nM; with OVCAR-8 ovarian, 2460 nM; in the assay with T-47D breast it was 3660 nM. In addition, the GI50 in the assay with HOP-62 NSCLC is 3080 nM; with TK-10 renal it was 3270 nM. The TGI in the assay on LOX IMVI melanoma was > 31.3 µM and 7.29 µM; with MOLT-4 leukemia, > 100 µM and 13.5 µM; with SF-539 CNS, 18200 nM and 14700 nM; in the assay on NCI-H522 lung it was 11600 nM and 10300 nM; in the assay with EKVX NSCLC it was 39.7 µM and 15.3 µM; with OVCAR-8 ovarian, 30.5 µM and 7.38 µM. Further, the TGI is > 57.1 µM and 32.4 µM in the assay with T-47D breast; 18.8 µM and 11.4 µM in the assay on HOP-62 NSCLC; 13.8 µM and 8.93 µM in the assay with A498 renal; 24.9 µM and 14.4 µM with TK-10 renal.
On to `COc1ccc(-c2cc(=O)c3c(C)ccnc3[nH]2)cc1`, for which the TGI with LOX IMVI melanoma was more than 100 µM; with MOLT-4 leukemia, 50 µM; in the assay on SF-539 CNS, 72200 nM; with NCI-H522 lung it was more than 100000 nM; with EKVX NSCLC, more than 100 µM; in the assay with OVCAR-8 ovarian it was more than 100 µM. Further, the TGI was more than 100 µM in the assay on T-47D breast, 92.4 µM with HOP-62 NSCLC, 41.4 µM with A498 renal and more than 100 µM in the assay with TK-10 renal.
`Oc1ccc(CCNc2nc3ccccc3c3[nH]c4ccccc4c23)cc1O`: the GI50 was 1770 nM in the assay on LOX IMVI melanoma; 2160 nM with MOLT-4 leukemia; 2020 nM in the assay with SF-539 CNS; 8990 nM in the assay on EKVX NSCLC; 1900 nM in the assay on OVCAR-8 ovarian; 14200 nM in the assay with T-47D breast. Besides, the GI50 with HOP-62 NSCLC was 3780 nM; in the assay on A498 renal, 13600 nM; in the assay on TK-10 renal it was 5370 nM. In addition, the TGI in the assay with LOX IMVI melanoma came out at 3.28 µM; in the assay on MOLT-4 leukemia, 5.38 µM; with SF-539 CNS, 3600 nM; with EKVX NSCLC, 37.4 µM; in the assay with OVCAR-8 ovarian, 3.85 µM; in the assay on T-47D breast it was 32.2 µM. The TGI in the assay on HOP-62 NSCLC was determined as 13.5 µM; in the assay on A498 renal, 26.5 µM; in the assay on TK-10 renal, 19 µM.
`CN1CCN(CCCOC(=O)c2c3c(n4ccccc24)C(=O)c2ncccc2C3=O)CC1`: the GI50 with LOX IMVI melanoma is less than 10 nM; in the assay with MOLT-4 leukemia, 60.4 nM; in the assay with SF-539 CNS, less than 15.4 nM; with NCI-H522 lung, less than 10 nM; with EKVX NSCLC, 45.6 nM; in the assay with OVCAR-8 ovarian, less than 11 nM. Also, the GI50 was 1890 nM in the assay with T-47D breast, less than 10 nM in the assay on HOP-62 NSCLC and 113 nM with TK-10 renal. For the same compound, the TGI with LOX IMVI melanoma is 0.0334 µM; with MOLT-4 leukemia, 23.4 µM; in the assay on SF-539 CNS, 103 nM; in the assay with NCI-H522 lung, less than 16.4 nM; in the assay on EKVX NSCLC, 12.6 µM; in the assay on OVCAR-8 ovarian, 11.9 µM. Besides, the figures for the TGI in the assay on T-47D breast, in the assay with HOP-62 NSCLC and with TK-10 renal were 29.6 µM, 0.0393 µM and 21.6 µM, respectively.
`OC(c1ccccc1)c1c(-c2ccccc2)[nH]c(-c2ccccc2)c1C(O)c1ccccc1` (stereo unspecified): the TGI in the assay on LOX IMVI melanoma was 7.37 µM; in the assay on MOLT-4 leukemia, 7 µM; with SF-539 CNS, 6940 nM; in the assay with NCI-H522 lung, 11500 nM; in the assay with EKVX NSCLC, 13.9 µM; in the assay on T-47D breast it was 40.4 µM. Further, the TGI in the assay on HOP-62 NSCLC is 17.5 µM; in the assay with A498 renal, 8.73 µM; with TK-10 renal, 18.9 µM.
For the compound `N#Cc1cnc2ccc(NCc3cnc[nH]3)cc2c1Nc1ccc(F)c(Cl)c1`, the GI50 in the assay with LOX IMVI melanoma was 5620 nM; with MOLT-4 leukemia, more than 100000 nM; in the assay on SF-539 CNS, 14700 nM; in the assay with NCI-H522 lung it was 4600 nM; with OVCAR-8 ovarian, 4510 nM; with T-47D breast, 4680 nM. Further, the GI50 with HOP-62 NSCLC is 10500 nM; in the assay with TK-10 renal, 2770 nM. For the same compound, the TGI in the assay with LOX IMVI melanoma was more than 100 µM; with MOLT-4 leukemia, more than 100 µM; in the assay on SF-539 CNS it was more than 100000 nM; in the assay on NCI-H522 lung it was more than 100000 nM; in the assay on OVCAR-8 ovarian, more than 100 µM; in the assay on T-47D breast, more than 100 µM. In addition, the TGI with HOP-62 NSCLC is more than 100 µM; in the assay on TK-10 renal it was 97.2 µM.
Turning to `CCCCCOC(=O)c1c(C)[nH]c(/C=C2\N=C(c3ccc[nH]3)C=C2OC)c1C`, the GI50 is 11.5 nM with LOX IMVI melanoma; 26.5 nM in the assay on MOLT-4 leukemia; 30.6 nM in the assay on SF-539 CNS; 39.2 nM with NCI-H522 lung; 37.3 nM in the assay with OVCAR-8 ovarian; 36.9 nM in the assay with T-47D breast. Also, the values for the GI50 with HOP-62 NSCLC, in the assay on A498 renal and with TK-10 renal were 43.6 nM, 124 nM and 47 nM, respectively. The TGI with LOX IMVI melanoma came to 0.025 µM; in the assay on MOLT-4 leukemia, 1.43 µM; in the assay on SF-539 CNS it was 725 nM; with NCI-H522 lung, 1270 nM; in the assay on OVCAR-8 ovarian, 1.18 µM; with T-47D breast, 1.37 µM. Besides, the TGI turned out to be 0.937 µM with HOP-62 NSCLC, 1.02 µM in the assay with A498 renal and 1.72 µM in the assay on TK-10 renal.
Take `O=c1cc(-c2cccc(Cl)c2)[nH]c2cc3c(cc12)OCO3`: the GI50 with LOX IMVI melanoma is 434 nM; in the assay on MOLT-4 leukemia it was 654 nM; in the assay with SF-539 CNS it was 288 nM; in the assay on OVCAR-8 ovarian it was 760 nM; in the assay with A498 renal it was 1040 nM. For the same compound, the TGI in the assay with LOX IMVI melanoma is 38.8 µM and 40.2 µM; in the assay with MOLT-4 leukemia, 75 µM and > 100 µM; with SF-539 CNS, 1080 nM and 1560 nM; in the assay with NCI-H522 lung it was 2800 nM; with OVCAR-8 ovarian, 35 µM and 18.1 µM; in the assay on T-47D breast it was 65.3 µM. Further, the TGI is 2.85 µM with HOP-62 NSCLC; 36.9 µM and 29.6 µM in the assay with A498 renal; 39.3 µM and 22.4 µM in the assay with TK-10 renal.

(Values after PubChem BioAssay (NCI).)
